Entries after “also recorded” stand apart in the source; their conditions may differ. Where a SMILES comes first, the peptide text is derived from it. Where no end group is shown, it is not given here. The star is where a group is joined. Palmitoyl = CCCCCCCCCCCCCCCC(=O)*
Key:
[1] = test system: human platelets
[2] = molecular target: T1, PAR1 (Homo sapiens, UniProt P25116); assay: InsP formation (PLC-β) in Rat1 fibroblasts expressing human PAR1; type: cell-based
T1 construct: expressed in transfected cells
T1 sequence (P25116 22-425): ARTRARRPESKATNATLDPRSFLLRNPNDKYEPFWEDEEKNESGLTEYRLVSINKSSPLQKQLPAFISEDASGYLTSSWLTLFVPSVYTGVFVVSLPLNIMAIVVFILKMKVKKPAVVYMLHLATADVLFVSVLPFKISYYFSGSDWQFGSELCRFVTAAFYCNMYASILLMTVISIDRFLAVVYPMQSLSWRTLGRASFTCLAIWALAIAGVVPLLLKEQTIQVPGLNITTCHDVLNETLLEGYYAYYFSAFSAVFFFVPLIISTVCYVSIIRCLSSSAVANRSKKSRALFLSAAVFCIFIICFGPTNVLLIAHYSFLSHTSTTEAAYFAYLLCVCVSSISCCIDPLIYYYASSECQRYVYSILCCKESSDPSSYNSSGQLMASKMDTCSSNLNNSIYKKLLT

[3] = test system: platelets; assay: Platelet intracellular Ca2+, agonist activity of peptides
[4] = molecular target: T2, somatostatin receptor (SSTR2) (Rattus norvegicus, UniProt P30680); assay: InsP formation in COS7 cells expressing SSTR2; type: cell-based; details: relative to full response to 1 μM AGCKNFFWKTFTSC
T2 construct: expressed in transfected cells; host or cells: COS7, transient
T2 sequence (P30680 whole entry): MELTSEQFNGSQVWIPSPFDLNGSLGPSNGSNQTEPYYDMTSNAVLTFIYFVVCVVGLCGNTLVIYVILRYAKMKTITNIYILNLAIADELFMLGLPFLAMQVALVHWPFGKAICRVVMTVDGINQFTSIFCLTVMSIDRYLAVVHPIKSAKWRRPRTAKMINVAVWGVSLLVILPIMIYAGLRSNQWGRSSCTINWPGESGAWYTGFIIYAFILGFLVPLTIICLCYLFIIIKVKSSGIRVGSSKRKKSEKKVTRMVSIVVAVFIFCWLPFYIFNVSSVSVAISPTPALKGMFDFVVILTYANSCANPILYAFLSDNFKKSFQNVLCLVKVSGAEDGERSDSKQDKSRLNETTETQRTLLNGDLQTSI

[5] = molecular target: T3, PAR4 (Homo sapiens, UniProt Q96RI0); assay: Inhibition of AYPGKF-induced human platelet aggregation; type: cell-based
T3 sequence (Q96RI0 18-385): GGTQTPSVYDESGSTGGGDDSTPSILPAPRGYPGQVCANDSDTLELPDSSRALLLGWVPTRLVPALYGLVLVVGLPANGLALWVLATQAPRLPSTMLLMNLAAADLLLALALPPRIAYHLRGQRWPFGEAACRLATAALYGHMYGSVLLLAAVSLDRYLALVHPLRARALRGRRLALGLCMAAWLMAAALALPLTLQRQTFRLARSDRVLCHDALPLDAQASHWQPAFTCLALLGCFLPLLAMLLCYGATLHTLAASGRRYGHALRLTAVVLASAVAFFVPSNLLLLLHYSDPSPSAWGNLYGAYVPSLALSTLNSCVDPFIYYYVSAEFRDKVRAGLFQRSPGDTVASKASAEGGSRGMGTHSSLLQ

[6] = molecular target: T1, PAR1; assay: Inhibition of PAR1-dependent platelet Ca2+ signal; type: cell-based
Method: (§1) Platelet Ca2+ measurements were performed as in Example 1.
(§2) The integrated Ca^2+ response for the individual treatments are relative to the full Ca^2+ responses for each agonist (100%) recorded in the absence of P4pal-10 (top trace).

[7] = molecular target: T3, PAR4; assay: Inhibition of PAR4-dependent platelet Ca2+ signal (AYPGKF); type: cell-based
Method: as §1, §2

[8] = molecular target: T4, cholecystokinin B (CCKB) (Homo sapiens, UniProt P32239); assay: InsP formation in COS7 cells expressing CCKB; type: cell-based; details: relative to 300 nM CCK-8
T4 construct: expressed in transfected cells; host or cells: COS7, transient
T4 sequence (P32239 1-447): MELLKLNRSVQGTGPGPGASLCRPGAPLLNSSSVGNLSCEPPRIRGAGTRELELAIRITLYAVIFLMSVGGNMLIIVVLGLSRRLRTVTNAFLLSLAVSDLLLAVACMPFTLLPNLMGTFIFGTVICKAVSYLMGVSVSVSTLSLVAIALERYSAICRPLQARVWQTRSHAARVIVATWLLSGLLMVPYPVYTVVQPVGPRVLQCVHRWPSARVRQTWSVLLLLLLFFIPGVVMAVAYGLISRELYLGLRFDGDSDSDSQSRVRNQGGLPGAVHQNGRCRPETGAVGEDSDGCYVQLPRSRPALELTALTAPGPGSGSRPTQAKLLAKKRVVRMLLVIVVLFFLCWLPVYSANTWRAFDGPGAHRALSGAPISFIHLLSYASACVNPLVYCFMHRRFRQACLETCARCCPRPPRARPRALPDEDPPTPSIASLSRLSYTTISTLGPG

[9] = 5 μM pepducin, SFLLRN followed by AYPGKF
[10] = 1.2-5 μM pepducin, AYPGKF first, then SFLLRN

Y12pal-18: pepducin based on the i3-loop of P2Y12; peptide YVRTRGVGKVPRKKVNVF (SEQ ID NO:33) (also: palmitoyl lipid, position not given here) [Pepducin Y12pal-18]
agonist activity in platelet aggregation [1]: no agonist activity

INLKALAALAKKIL [mastoparan, reference compound]
stimulation of InsP production (agonist activity) [2]: did not stimulate InsP production

CCCCCCCCCCCCCCCC(=O)O [Palmitic acid, reference compound]
agonist activity in platelet aggregation [1]: has no effect | agonist activity, platelet intracellular Ca2+ [3]: has no effect

FSAVFFFVPL1ISTVCYVSI1RCLSSSAVANRSKKSRALF (FSAVFFFVPLIISTVCYVSIIRCLSSSAVANRSKKSRALF) [Pepducin P1-i3-40]
agonist activity, platelet intracellular Ca2+ [3]: causes a rapid intracellular Ca^2+ transient | lag phase of Ca2+i transient [3]: < 5 s

CCCCCCCCCCCCCCCC(=O)N[C@@H](CCCCN)C(=O)N[C@H](C(=O)N[C@@H](CCCNC(=N)N)C(=O)N[C@@H](CO)C(=O)N[C@@H](CO)C(=O)NCC(=O)N[C@H](C(=O)N[C@@H](CCCNC(=N)N)C(=O)N[C@H](C(=O)NCC(=O)N[C@@H](CO)C(=O)N[C@@H](CO)C(=O)N[C@@H](CCCCN)C(=O)N[C@@H](CCCNC(=N)N)C(=O)N[C@@H](CCCCN)C(=O)N[C@@H](CCCCN)C(=O)N[C@@H](CO)C(=O)N[C@@H](CCC(=O)O)C(=O)N[C@@H](CCCCN)C(=O)N[C@@H](CCCCN)C(=O)N[C@H](C(=O)N[C@H](C(=O)N[C@@H](Cc1ccccc1)C(N)=O)[C@@H](C)O)C(C)C)C(C)C)[C@@H](C)CC)C(C)C [Pepducin S2pal-23F] (Palmitoyl-KVRSSGIRVGSSKRKKSEKKVTF-NH2)
Agonist Efficacy [4]: 15 ± 4%

CCCCCCCCCCCCCCCC(=O)N[C@@H](CCCNC(=N)N)C(=O)N[C@@H](CS)C(=O)N[C@@H](CCC(=O)O)C(=O)N[C@@H](CO)C(=O)N[C@@H](CO)C(=O)N[C@@H](CO)C(=O)N[C@@H](C)C(=O)N[C@@H](CCC(=O)O)C(=O)N[C@@H](C)C(=O)N[C@@H](CC(N)=O)C(=O)N[C@@H](CCCNC(=N)N)C(=O)N[C@@H](CO)C(=O)N[C@@H](CCCCN)C(=O)N[C@@H](CCCCN)C(=O)N[C@@H](CCC(=O)O)C(=O)N[C@@H](CCCNC(=N)N)C(=O)N[C@@H](CCC(=O)O)C(=O)N[C@@H](CC(C)C)C(=O)N[C@@H](Cc1ccccc1)C(N)=O [Pepducin P1pal-19E] (Palmitoyl-RCESSSAEANRSKKERELF-NH2)
Agonist Efficacy [2]: 11 ± 1% | loss of agonist activity [2]: ~90% | IC50 ([2]; Antagonist IC50): > 50000 nM

CCCCCCCCCCCCCCCC(=O)N[C@@H](CO)C(=O)NCC(=O)N[C@@H](CCCNC(=N)N)C(=O)N[C@@H](CCCNC(=N)N)C(=O)N[C@@H](Cc1ccc(O)cc1)C(=O)NCC(=O)N[C@@H](Cc1c[nH]cn1)C(=O)N[C@@H](C)C(=O)N[C@@H](CC(C)C)C(=O)N[C@@H](CCCNC(=N)N)C(N)=O [Pepducin P4pal-10] (Palmitoyl-SGRRYGHALR-NH2)
IC50 [5]: 500 to 1000 nM | inhibition of PAR1 Ca2+ response [6, 9]: 36% | attenuation of PAR1 Ca2+ signal [6, 10]: 17-67% | inhibition of PAR4 Ca2+ response [7, 9]: 97% | attenuation of PAR4 Ca2+ response [7, 10]: 50-80%

CCCCCCCCCCCCCCCC(=O)N[C@@H](CCCNC(=N)N)C(=O)N[C@@H](CS)C(=O)N[C@@H](CC(C)C)C(=O)N[C@@H](CO)C(=O)N[C@@H](CO)C(=O)N[C@@H](CO)C(=O)N[C@@H](C)C(=O)N[C@H](C(=O)N[C@@H](C)C(=O)N[C@@H](CC(N)=O)C(=O)N[C@@H](CCC(N)=O)C(=O)N[C@@H](CO)C(=O)N[C@@H](CCC(N)=O)C(=O)N[C@@H](CCC(N)=O)C(=O)N[C@@H](CO)C(=O)N[C@@H](CCC(N)=O)C(=O)N[C@@H](C)C(=O)N[C@@H](CC(C)C)C(=O)N[C@@H](Cc1ccccc1)C(N)=O)C(C)C [Pepducin P1pal-19Q] (Palmitoyl-RCLSSSAVANQSQQSQALF-NH2)
Agonist Efficacy [2]: 46 ± 8% | loss in efficacy, stimulation of InsP [2]: 2 fold | loss in efficacy, platelet aggregation ([1]; relative to P1pal-19): 2 fold

RSLSSSAVANRSKKSRALF [Pepducin P1-i3-19]
agonist activity, platelet intracellular Ca2+ [3]: causes little stimulation of Ca^2+ fluxes

CCCCCCCCCCCCCCCC(=O)N[C@@H](CO)C(=O)NCC(=O)N[C@@H](CO)C(=O)N[C@@H](CCCNC(=N)N)C(=O)N1CCC[C@H]1C(=O)N[C@H](C(=O)N[C@@H](CCC(N)=O)C(=O)N[C@@H](C)C(=O)N[C@@H](CCCCN)C(=O)N[C@@H](CC(C)C)C(=O)N[C@@H](CC(C)C)C(=O)N[C@@H](C)C(=O)N[C@@H](CCCCN)C(=O)N[C@@H](CCCCN)C(=O)N[C@@H](CCCNC(=N)N)C(=O)N[C@H](C(=O)N[C@H](C(=O)N[C@@H](CCCNC(=N)N)C(N)=O)C(C)C)C(C)C)[C@@H](C)O [Bpal-18] (Palmitoyl-SGSRPTQAKLLAKKRVVR-NH2)
Agonist Efficacy [8]: 12 ± 3%

VCYVSIIRSLSSSAVANRSKKSRALF [Pepducin P1-i3-26]
agonist activity, platelet intracellular Ca2+ [3]: gives a minor, unregulated Ca^2+i response

CCCCCCCCCCCCCCCC(=O)N[C@@H](Cc1c[nH]cn1)C(=O)N[C@H](C(=O)N[C@@H](CC(C)C)C(=O)N[C@@H](C)C(=O)N[C@@H](C)C(=O)N[C@@H](CO)C(=O)NCC(=O)N[C@@H](CCCNC(=N)N)C(=O)N[C@@H](CCCNC(=N)N)C(=O)N[C@@H](Cc1ccc(O)cc1)C(=O)NCC(=O)N[C@@H](Cc1c[nH]cn1)C(=O)N[C@@H](C)C(=O)N[C@@H](CC(C)C)C(=O)N[C@@H](CCCNC(=N)N)C(N)=O)[C@@H](C)O [Pepducin P4pal-15] (Palmitoyl-HTLAASGRRYGHALR-NH2)
IC50 [5]: 600 nM | inhibition of PAR4-dependent platelet aggregation ([5]; AYPGKF): effective inhibitor of platelet aggregation | inhibition of PAR1-dependent Ca2+ response ([6]; SFLLRN (or thrombin) after peptide pre-treatment): without affecting SFLLRN | inhibition of PAR4-dependent Ca2+ response ([7]; 3 micromolar pepducin, 200 Micromolar AYPGKF): fully antagonize PAR4 signaling; also recorded: blocked AYPGKF | agonist activity, platelet intracellular Ca2+ [3]: had no agonist activity

VPLIISTVCYVSIIRCLSSSAVANRSKKSRALF [Pepducin P1-i3-33]
agonist activity, platelet intracellular Ca2+ [3]: has similar potency to the P1-i3-40 peptide

CCCCCCCCCCCCCCCC(=O)N[C@@H](CO)C(=O)NCC(=O)N[C@@H](CO)C(=O)N[C@@H](CCCNC(=N)N)C(=O)N1CCC[C@H]1C(=O)N[C@H](C(=O)N[C@@H](CCC(N)=O)C(=O)N[C@@H](C)C(=O)N[C@@H](CCCCN)C(=O)N[C@@H](CC(C)C)C(=O)N[C@@H](CC(C)C)C(=O)N[C@@H](C)C(=O)N[C@@H](CCCCN)C(=O)N[C@@H](CCCCN)C(=O)N[C@@H](CCCNC(=N)N)C(=O)N[C@H](C(=O)N[C@H](C(=O)N[C@@H](Cc1ccccc1)C(N)=O)C(C)C)C(C)C)[C@@H](C)O [Bpal-18F] (Palmitoyl-SGSRPTQAKLLAKKRVVF-NH2)
Agonist Efficacy [8]: 13 ± 2%
